{
  "source": "patent US20250163104A1",
  "about": "“MACROCYCLIC IMMUNOMODULATORS” (priority 2021, published 2025)",
  "note": "Where a SMILES comes first, the peptide text is derived from it. Bridges are numbered along the chain shown (N, C = ends). [ ]: non-standard residue; d: D form. Phe(4-CH2NH2) = NCc1ccc(C[C@H](N)C(=O)O)cc1; Bip = N[C@@H](Cc1ccc(-c2ccccc2)cc1)C(=O)O; Phe(4-CN) = N#Cc1ccc(C[C@H](N)C(=O)O)cc1; Phe(4-Cl) = N[C@@H](Cc1ccc(Cl)cc1)C(=O)O; Ala(2-furyl) = N[C@@H](Cc1ccco1)C(=O)O; Phe(3-F) = N[C@@H](Cc1cccc(F)c1)C(=O)O; Cha = N[C@@H](CC1CCCCC1)C(=O)O; Cit = NC(=O)NCCC[C@H](N)C(=O)O; Orn = NCCC[C@H](N)C(=O)O; Dab = NCC[C@H](N)C(=O)O; Dap = NC[C@H](N)C(=O)O",
  "data": [
    {"target": "T1, human PD-1 / PD-L1-Ig binding on Jurkat cell line over-expressing human PD-1 (Jurkat-PD-1) (Homo sapiens, UniProt Q15116)", "T1 construct": "expressed in transfected cells; host or cells: Jurkat", "T1 sequence (Q15116 25-288)": "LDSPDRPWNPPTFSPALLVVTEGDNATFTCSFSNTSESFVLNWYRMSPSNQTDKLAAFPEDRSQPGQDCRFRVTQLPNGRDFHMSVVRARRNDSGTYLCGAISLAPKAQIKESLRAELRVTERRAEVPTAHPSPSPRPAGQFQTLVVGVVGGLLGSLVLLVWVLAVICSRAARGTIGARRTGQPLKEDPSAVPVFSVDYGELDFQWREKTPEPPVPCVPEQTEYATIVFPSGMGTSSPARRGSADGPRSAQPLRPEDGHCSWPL", "test": "Jurkat-PD-1 Cell Binding High-Content Screening Assay (CBA)", "type": "cell-based", "conditions": "Jurkat-PD-1 cells, PE-labeled PD-L1-Ig 20 nM final; read-out: Jurkat HPD1_PDL1 IC50", "how_it_was_run": "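Read-out: high-content imaging of PE-tagged PD-L1-Ig bound to Jurkat cells overexpressing human PD-1, after fixation with 4% paraformaldehyde and Hoechst 33342 nuclear staining. Ligand was used at 20 nM final for 1 hour, after a 2 h compound exposure at 37° C in serum-containing DMEM.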", "units": {"IC50": "nM"}, "values": [
      {"smiles": "CC(C)C[C@H]1NC(=O)[C@H](CCCN)NC(=O)[C@H](CCCNC(N)=O)NC(=O)[C@H](Cc2ccc(-c3ccccc3)cc2)NC(=O)[C@H](C(C)C)NC(=O)[C@H](Cc2c[nH]c3ccccc23)NC(=O)[C@H](CC(=O)O)NC(=O)[C@H](Cc2cccc(F)c2)NC(=O)[C@H](CN)NC(=O)CSC[C@@H](C(=O)N[C@@H](C)C(N)=O)NC(=O)[C@H]([C@@H](C)O)NC(=O)[C@H](C(C)C)NC(=O)[C@H](CC2CCCCC2)NC(=O)[C@H](CCN)NC1=O", "note": "[Compound 2097] ({CH2CO}-[Dap][Phe(3-F)]DWV[Bip][Cit][Orn][dL][Dab][Cha]VTCA-NH2; thioether N-14)", "IC50": 18.8},
      {"smiles": "CC(C)C[C@H]1NC(=O)[C@H](CCCN)NC(=O)[C@H](CCCNC(N)=O)NC(=O)[C@H](Cc2ccc(-c3ccccc3)cc2)NC(=O)[C@H](C(C)C)NC(=O)[C@H](Cc2c[nH]c3ccccc23)NC(=O)[C@H](CC(=O)O)NC(=O)[C@H](Cc2ccc(CN)cc2)NC(=O)[C@H](CN)NC(=O)CSC[C@@H](C(=O)N[C@@H](C)C(N)=O)NC(=O)[C@H]([C@@H](C)O)NC(=O)[C@H](C(C)C)NC(=O)[C@H](CC2CCCCC2)NC(=O)[C@H](CCN)NC1=O", "note": "[Compound 2098] ({CH2CO}-[Dap][Phe(4-CH2NH2)]DWV[Bip][Cit][Orn][dL][Dab][Cha]VTCA-NH2; thioether N-14)", "IC50": 15.7},
      {"smiles": "CC(C)C[C@H]1NC(=O)[C@H](CCCN)NC(=O)[C@H](CCCNC(N)=O)NC(=O)[C@H](Cc2ccc(-c3ccccc3)cc2)NC(=O)[C@H](C(C)C)NC(=O)[C@H](Cc2c[nH]c3ccccc23)NC(=O)[C@H](CC(=O)O)NC(=O)[C@H](Cc2ccco2)NC(=O)[C@H](CN)NC(=O)CSC[C@@H](C(=O)N[C@@H](C)C(N)=O)NC(=O)[C@H]([C@@H](C)O)NC(=O)[C@H](C(C)C)NC(=O)[C@H](CC2CCCCC2)NC(=O)[C@H](CCN)NC1=O", "note": "[Compound 2099] ({CH2CO}-[Dap][Ala(2-furyl)]DWV[Bip][Cit][Orn][dL][Dab][Cha]VTCA-NH2; thioether N-14)", "IC50": 12.6},
      {"smiles": "CC(C)C[C@H]1NC(=O)[C@H](CCCN)NC(=O)[C@H](CCCNC(N)=O)NC(=O)[C@H](Cc2ccc(-c3ccccc3)cc2)NC(=O)[C@H](C(C)C)NC(=O)[C@H](Cc2c[nH]c3ccccc23)NC(=O)[C@H](CC(=O)O)NC(=O)[C@H](Cc2ccsc2)NC(=O)[C@H](CN)NC(=O)CSC[C@@H](C(=O)N[C@@H](C)C(N)=O)NC(=O)[C@H]([C@@H](C)O)NC(=O)[C@H](C(C)C)NC(=O)[C@H](CC2CCCCC2)NC(=O)[C@H](CCN)NC1=O", "note": "[Compound 2100]", "IC50": 21.2},
      {"smiles": "CC(C)C[C@H]1NC(=O)[C@H](CCCN)NC(=O)[C@H](CCCNC(N)=O)NC(=O)[C@H](Cc2ccc(-c3ccccc3)cc2)NC(=O)[C@H](C(C)C)NC(=O)[C@H](Cc2c[nH]c3ccccc23)NC(=O)[C@H](CC(=O)O)NC(=O)[C@H](Cc2ccc(C#N)cc2)NC(=O)[C@H](CN)NC(=O)CSC[C@@H](C(=O)N[C@@H](C)C(N)=O)NC(=O)[C@H]([C@@H](C)O)NC(=O)[C@H](C(C)C)NC(=O)[C@H](CC2CCCCC2)NC(=O)[C@H](CCN)NC1=O", "note": "[Compound 2101] ({CH2CO}-[Dap][Phe(4-CN)]DWV[Bip][Cit][Orn][dL][Dab][Cha]VTCA-NH2; thioether N-14)", "IC50": 6.6},
      {"smiles": "CC(C)C[C@H]1NC(=O)[C@H](CCCN)NC(=O)[C@H](CCCNC(N)=O)NC(=O)[C@H](Cc2ccc(-c3ccccc3)cc2)NC(=O)[C@H](C(C)C)NC(=O)[C@H](Cc2c[nH]c3ccccc23)NC(=O)[C@H](CC(=O)O)NC(=O)[C@H](Cc2ccc(Cl)cc2)NC(=O)[C@H](CN)NC(=O)CSC[C@@H](C(=O)N[C@@H](C)C(N)=O)NC(=O)[C@H]([C@@H](C)O)NC(=O)[C@H](C(C)C)NC(=O)[C@H](CC2CCCCC2)NC(=O)[C@H](CCN)NC1=O", "note": "[Compound 2102] ({CH2CO}-[Dap][Phe(4-Cl)]DWV[Bip][Cit][Orn][dL][Dab][Cha]VTCA-NH2; thioether N-14)", "IC50": 45.6}
    ]}
  ]
}
